Reference: patent US4416826A, “Peresters and use thereof” (priority 1980, dated 1983)
Where two headings read alike, the source gives them in different places.

Legend:
[1] = Photopolymerization of styrene, radical efficiency
Procedure: Commercial styrene is washed three times with ice cold 2% NaOH solution followed by washing (four times) with distilled water. The styrene is dried over anhydrous CaCl2 and distilled under vacuum before use. The middle fraction of the distillate is used for polymerization. Solvents are purified by conventional means and distilled under N2 atmosphere.
The irradiations are carried out in degassed (three cycles of freeze-thaw under high vacuum) sealed 15-mm Pyrex tubes. The tubes are placed in a merry-go-round with a filtered UV source of 366 nm at the center and the yield of polymer is measured (below 10% conversion) gravimetrically. In all of the cases, tubes of the same size and same volume of solution are used. Number-average molecular weights of the purified polymers are determined by viscometry in a benzene solution. After the polymerization, an aliquot of 0.5 ml from each reaction tube is placed in 2-ml volumetric flasks. The solvent and excess monomer are evaporated under high vacuum for several hours. The remaining flask contents are dissolved in 0.5 ml of benzene or chloroform and the polymer is precipitated by adding 0.5 ml of n-hexane. The solution then is centrifuged and the IR of the centrifugate is measured to determine undecomposed perester. All of the above procedures are carried out as far as possible in the dark. The light intensity is measured by benzophenone-benzhydrol actinometry and observed to be Io =6.56×10^17 quanta/min on the average. The temperature of the tubes is maintained at 30° C.
The efficiency of the radicals to initiate polymerization, f, in the absence of any appreciable amount of chain transfer, can be defined as [formula] assuming bimolecular termination by the combination of two growing chains only [formula] whereas kd =rate of decomposition of perester in mol/liter sec. in the absence of monomer (a function of light intensity).

[2] = Polymerization of methyl methacrylate; settings: initiator 5 × 10^-2 M, [MMA] = 3.1 M, 25° C., benzene
Procedure: Commercial methyl methacrylate monomer is washed three times with 2% NaOH solution to remove stabilizer. It is then washed with distilled water three times, dried with molecular sieves, and distilled under vacuum before use. Polymerization solutions are prepared in cylindrical tubes which are degassed and sealed. The amount of polymer formed is determined by precipitating the polymer with an excess of methanol, washing with methanol, and filtering through fine sintered crucibles (previously weighed) followed by drying in a vacuum oven. The irradiation condition is the same as that in the decomposition rate example hereinabove.

[3] = Thermal stability / thermal decomposition of peresters in the dark; assay type: physicochemical; settings: 110° C., chlorobenzene, dark; initial concn Ia 5.01, Ib 5.15, Ic 5.19 × 10^-2 M
[4] = End group analysis of polystyrene by IR
Procedure: The polystyrene obtained from each of the above polymerizations is purified by repeated (four times) precipitation from benzene solution with methanol. Before each precipitation, the benzene solution is centrifuged to remove any insoluble material. The finely powdered polymer is filtered and dried under vacuum for two days. Known amounts of polymer are dissolved in benzene and the IR is taken (2000-1500 cm^-1) against benzene in 0.1-mm NaCl cells. The peaks at 1730 and 1670 cm^-1 for the carbonyl groups, caused by ester and benzophenones, respectively, are measured. […] The extinction coefficient of the carbonyl group at 1730 cm^-1 is compared with that of authenticated methyl benzoylbenzoate, which is used as a model to measure the concentration of the ester end groups in the polymer. From the concentration of the ester and the extinction resulting from the carbonyl group in the benzophenone, the absorption caused by the benzophenone that is present as the ester can be calculated. The value is subtracted from the absorption obtained at 1670 cm^- 1 for the polymer. From the resulting absorption, the concentration of benzophenone alone is estimated from the known extinction of benzophenone at that wavelength.

[5] = Stern-Volmer triplet quenching with naphthalene; assay type: physicochemical; settings: CCl4
Description: All the peresters give linear Stern-Volmer plots when naphthalene is used as triplet quencher.

[6] = benzene, [I] 0.31 × 10^-3 M, [M] 3.5 M
[7] = benzene, [I] 0.63 × 10^-3 M, [M] 3.5 M
[8] = benzene, [I] 1.15 × 10^-3 M, [M] 3.5 M
[9] = benzene, [I] 2.52 × 10^-3 M, [M] 3.5 M
[10] = benzene, [I] 5.03 × 10^-3 M, [M] 3.5 M
[11] = benzene, [I] 8.05 × 10^-3 M, [M] 3.5 M
[12] = benzene, [I] 10.0 × 10^-3 M, [M] 2.0 M
[13] = benzene, [I] 10.0 × 10^-3 M, [M] 3.5 M
[14] = benzene, [I] 10.0 × 10^-3 M, [M] 5.0 M
[15] = chloroform, [I] 1.11 × 10^-3 M, [M] 4.33 M
[16] = chloroform, [I] 2.28 × 10^-3 M, [M] 4.33 M
[17] = chloroform, [I] 5.14 × 10^-3 M, [M] 4.33 M
[18] = chloroform, [I] 9.92 × 10^-3 M, [M] 4.33 M
[19] = Exp. 1: benzene, [I] 10 × 10^-3 M, styrene 2 M
[20] = Exp. 2: benzene, [I] 10 × 10^-3 M, styrene 3.5 M
[21] = Exp. 3: benzene, [I] 10 × 10^-3 M, styrene 5.0 M
[22] = Exp. 4: benzene, [I] 10 × 10^-3 M, styrene 7.0 M
[23] = Exp. 5: chloroform, [I] 5.0 × 10^-3 M, styrene 5.51 M
[24] = Exp. 6: chloroform, [I] 5.0 × 10^-3 M, styrene 6.92 M

CC(C)(C)OOC(=O)c1ccc(C(=O)c2ccccc2)cc1 [Ia, t-Butyl-4-Benzoylperbenzoate]
radical efficiency, in words [1]: approaches unity at low initiator concentrations | kd, rate of decomposition of perester in the absence of monomer ([1]; Table X footnote): 0.000512 mol/L/s | Average degree of polymerization [1, 6]: 320.4 | Radical efficiency f [1, 6]: 0.92 | Rp × 10^5 [1, 6]: 0.65 mole/liter sec | φrel [1, 6]: 0.14 | Average degree of polymerization [1, 7]: 166.7 | Radical efficiency f [1, 7]: 1.21 | Rp × 10^5 [1, 7]: 0.92 mole/liter sec | φrel [1, 7]: 0.14 | Average degree of polymerization [1, 8]: 155.5 | Radical efficiency f [1, 8]: 1.00 | Rp × 10^5 [1, 8]: 1.29 mole/liter sec | φrel [1, 8]: 0.14 | Average degree of polymerization [1, 9]: 102.8 | Radical efficiency f [1, 9]: 0.79 | Rp × 10^5 [1, 9]: 1.47 mole/liter sec | φrel [1, 9]: 0.14 | Average degree of polymerization [1, 10]: 85.7 | Radical efficiency f [1, 10]: 0.56 | Rp × 10^5 [1, 10]: 1.72 mole/liter sec | φrel [1, 10]: 0.14 | Average degree of polymerization [1, 11]: 77.2 | Radical efficiency f [1, 11]: 0.41 | Rp × 10^5 [1, 11]: 1.83 mole/liter sec | φrel [1, 11]: 0.14 | Average degree of polymerization [1, 12]: 48.0 | Radical efficiency f [1, 12]: 0.16 | Rp × 10^5 [1, 12]: 0.95 mole/liter sec | φrel [1, 12]: 0.25 | Average degree of polymerization [1, 13]: 137.2 | Radical efficiency f [1, 13]: 0.15 | Rp × 10^5 [1, 13]: 1.50 mole/liter sec | φrel [1, 13]: 0.14 | Average degree of polymerization [1, 14]: 219.2 | Radical efficiency f [1, 14]: 0.16 | Rp × 10^5 [1, 14]: 2.08 mole/liter sec | φrel [1, 14]: 0.12 | φrel ([1]; chloroform, [I] 0.14 × 10^-3 M, [M] not given): 1.32 | Average degree of polymerization [1, 15]: 186.0 | Radical efficiency f [1, 15]: 0.89 | Rp × 10^5 [1, 15]: 1.32 mole/liter sec | φrel [1, 15]: 0.14 | Average degree of polymerization [1, 16]: 130.0 | Radical efficiency f [1, 16]: 0.86 | Rp × 10^5 [1, 16]: 1.83 mole/liter sec | Average degree of polymerization [1, 17]: 102.9 | Radical efficiency f [1, 17]: 0.37 | Rp × 10^5 [1, 17]: 2.01 mole/liter sec | Average degree of polymerization [1, 18]: 80.5 | Radical efficiency f [1, 18]: 0.40 | Rp × 10^5 [1, 18]: 2.29 mole/liter sec | rate of polymerization of styrene, in words ([1]; same concentration of initiators and monomer): almost double | Rate of Polymerization (Rp) of MMA, Rp × 10^5 [2]: 8.33 mL^-1 s^-1 | thermal 1st order dec rate × 10^5 [3]: 2.88 M × 10^5 s^-1 | thermal half-life t1/2 [3]: 6.7 h | total number of benzophenones as end groups per chain, in words [4]: one benzophenone end group | end groups per chain, Benzophenone [4, 19]: 0.18 | end groups per chain, Benzophenone as ester [4, 19]: 0.52 | end groups per chain, Total [4, 19]: 0.70 | end groups per chain, Benzophenone [4, 20]: 0.13 | end groups per chain, Benzophenone as ester [4, 20]: 0.68 | end groups per chain, Total [4, 20]: 0.81 | end groups per chain, Benzophenone [4, 21]: 0.33 | end groups per chain, Benzophenone as ester [4, 21]: 0.73 | end groups per chain, Total [4, 21]: 1.06 | end groups per chain, Benzophenone [4, 22]: 0.18 | end groups per chain, Benzophenone as ester [4, 22]: 0.81 | end groups per chain, Total [4, 22]: 0.99 | end groups per chain, Benzophenone [4, 23]: 0.29 | end groups per chain, Benzophenone as ester [4, 23]: 0.62 | end groups per chain, Total [4, 23]: 0.91 | end groups per chain, Benzophenone [4, 24]: 0.34 | end groups per chain, Benzophenone as ester [4, 24]: 0.71 | end groups per chain, Total [4, 24]: 1.05 | total number of benzophenones as end groups per chain, in words ([4]; listed as Perester): almost unity | quenching constant kq τ [5]: 7.5
